The nature of test [1]: Antioxidant activity assessed as inhibition of copper-induced human LDL oxidation. Type of test: functional.
A short description of test [2]: Antioxidant activity assessed as inhibition of endothelial cell-induced human LDL oxidation. The test is classed as functional, cell-based.

As to `O=c1cc(-c2ccc(O)cc2)oc2cc(O)ccc12`, the IC50 (commonly the midpoint of a concentration-inhibition curve) in test [1] was over 100000 nM.
Still for that read-out and setting: for `CC(C)(C)c1cc(-c2cc(=O)c3ccc(OCC(O)CO)cc3o2)cc(C(C)(C)C)c1O` (stereo not drawn) the value was 100 nM; for `COc1ccc2c(=O)cc(-c3cc(C(C)(C)C)c(O)c(C(C)(C)C)c3)oc2c1`, 1000 nM.
In the case of `COc1ccc2c(=O)cc(-c3cc(C(C)(C)C)c(OC)c(C(C)(C)C)c3)oc2c1`, the 50% inhibitory concentration (IC50) in test [1] is over 100000 nM.
On to `CC(C)(C)c1cc(-c2cc(=O)c3ccc(OCC(=O)O)cc3o2)cc(C(C)(C)C)c1O` [listing 1 of 2 here], for which the concentration for half-maximal inhibition (IC50) in test [1] came out at 100 nM.
As for `CCCCCOC(=O)COc1ccc2c(=O)cc(-c3cc(C(C)(C)C)c(O)c(C(C)(C)C)c3)oc2c1`, the IC50 in test [1] was found to be 5000 nM.
For the compound `CC(C)(C)c1cc(-c2cc(=O)c3ccc(OCC(=O)N4CCCCC4)cc3o2)cc(C(C)(C)C)c1O`, in test [1], the 50% inhibitory concentration (IC50) was determined as 3000 nM.
Still for that read-out and setting: for `CC(C)(C)c1cc(-c2cc(=O)c3ccc(OCc4ccc5ccccc5n4)cc3o2)cc(C(C)(C)C)c1O` the value was 3000 nM.
Take `CN(C)CCCOc1ccc2c(=O)cc(-c3cc(C(C)(C)C)c(O)c(C(C)(C)C)c3)oc2c1`: the IC50 in test [1] came to 700 nM.
`CCOC(=O)CCCCOc1ccc2c(=O)cc(-c3cc(C(C)(C)C)c(O)c(C(C)(C)C)c3)oc2c1`: in test [1], the half-maximal inhibitory concentration (IC50) is 3000 nM.
For the compound `CC(C)(C)c1cc(-c2cc(=O)c3ccc(OCCCS(=O)(=O)O)cc3o2)cc(C(C)(C)C)c1O`, the half-inhibitory concentration (IC50) in test [1] was 500 nM.
In the case of `CC(C)(C)c1cc(-c2cc(=O)c3ccccc3o2)cc(C(C)(C)C)c1O`, the IC50 in test [1] is 3000 nM; in test [2] it was 2500 nM.
On to `CC(C)(C)c1cc(-c2cc(=O)c3ccc(OCc4ccc(Cl)cc4)cc3o2)cc(C(C)(C)C)c1O`, for which the IC50 in test [1] was 7000 nM.
As to `CCOC(=O)C(C)(C)Oc1ccc2c(=O)cc(-c3cc(C(C)(C)C)c(O)c(C(C)(C)C)c3)oc2c1`, the IC50 in test [1] was determined as 3000 nM; in test [2], 500 nM.
Take `CCCCCCOc1ccc2c(=O)cc(-c3cc(C(C)(C)C)c(O)c(C(C)(C)C)c3)oc2c1`: the half-inhibitory concentration (IC50) in test [1] amounted to 5000 nM; in test [2], 50000 nM.
As for `CC(C)(C)c1cc(C(=O)Oc2ccc3c(=O)cc(-c4cc(C(C)(C)C)c(O)c(C(C)(C)C)c4)oc3c2)cc(C(C)(C)C)c1O`, the results for the IC50 in test [1] and in test [2] were 30000 nM and 70000 nM, respectively.
`CC(C)(C)c1cc(-c2cc(=O)c3ccc(OCC(=O)N4CCN(Cc5ccccc5)CC4)cc3o2)cc(C(C)(C)C)c1O`: the concentration for half-maximal inhibition (IC50) in test [1] turned out to be 3000 nM.
In the case of `CC(C)(C)c1cc(-c2cc(=O)c3ccc(OCC(=O)O)cc3o2)cc(C(C)(C)C)c1O` [listing 2 of 2 here], the half-maximal inhibitory concentration (IC50) worked out at 3000 nM in test [1] and 500 nM in test [2].
Regarding `CCN(CC)C(=O)COc1ccc2c(=O)cc(-c3cc(C(C)(C)C)c(O)c(C(C)(C)C)c3)oc2c1`, the IC50 in test [1] stood at 3000 nM.
Turning to `CN(C)CCOc1ccc2c(=O)cc(-c3cc(C(C)(C)C)c(O)c(C(C)(C)C)c3)oc2c1`, in test [1], the concentration for half-maximal inhibition (IC50) worked out at 700 nM.
On to `CC(C)(C)c1cc(-c2cc(=O)c3ccc(OCCO)cc3o2)cc(C(C)(C)C)c1O`, for which the IC50 in test [1] is 3000 nM.
On to `CCOC(=O)COc1ccc2c(=O)cc(-c3cc(C(C)(C)C)c(O)c(C(C)(C)C)c3)oc2c1`, for which the 50% inhibitory concentration (IC50) came to 3000 nM in test [1] and 800 nM in test [2].
Taken in the same sequence, the figures for `CC(C)(C)c1cc(-c2cc(=O)c3ccc(OCCN4CCOCC4)cc3o2)cc(C(C)(C)C)c1O` were 800 nM and 800 nM.
Regarding `CC(C)(C)c1cc(-c2cc(=O)c3ccc(O)cc3o2)cc(C(C)(C)C)c1O`, the IC50 in test [1] stood at 1000 nM; in test [2], 2000 nM.
As to `O=c1cc(-c2ccc(O)cc2)oc2cc(O)cc(O)c12` [APIGENIN], in test [1], the IC50 is over 100000 nM.
For the compound `Cc1cc(C(C)(C)C)c(O)c(C(C)(C)C)c1` [BUTYLATED HYDROXYTOLUENE], the IC50 in test [1] came out at 3000 nM.
On to `CC(C)(Sc1cc(C(C)(C)C)c(O)c(C(C)(C)C)c1)Sc1cc(C(C)(C)C)c(O)c(C(C)(C)C)c1` [PROBUCOL], for which the IC50 in test [1] was determined as 3000 nM; in test [2] it was 4000 nM.
VITAMIN E: the IC50 is over 100000 nM in test [1] and 4000 nM in test [2].

The values above are taken from ChEMBL document CHEMBL1150096, “Synthesis and evaluation of 3',5'-di-tert-butyl-4'-hydroxyflavones as potential inhibitors of low density lipoprotein (LDL) oxidation” (J Nat Prod, 1995).
